Consider one compound from article PMC7649747, “The startle disease mutation α1S270T predicts shortening of glycinergic synaptic currents” (The Journal of Physiology, 2020).

The target of assay [1] is T1, homomeric α1 GlyR (Homo sapiens, UniProt P23415, S298T).
T1 construct: gene GLRA1; full-length subunit, pcDNA3.1, transient expression in HEK293A; homopentamer; eGFP from separate plasmid
T1 sequence (P23415 29-457 S298T): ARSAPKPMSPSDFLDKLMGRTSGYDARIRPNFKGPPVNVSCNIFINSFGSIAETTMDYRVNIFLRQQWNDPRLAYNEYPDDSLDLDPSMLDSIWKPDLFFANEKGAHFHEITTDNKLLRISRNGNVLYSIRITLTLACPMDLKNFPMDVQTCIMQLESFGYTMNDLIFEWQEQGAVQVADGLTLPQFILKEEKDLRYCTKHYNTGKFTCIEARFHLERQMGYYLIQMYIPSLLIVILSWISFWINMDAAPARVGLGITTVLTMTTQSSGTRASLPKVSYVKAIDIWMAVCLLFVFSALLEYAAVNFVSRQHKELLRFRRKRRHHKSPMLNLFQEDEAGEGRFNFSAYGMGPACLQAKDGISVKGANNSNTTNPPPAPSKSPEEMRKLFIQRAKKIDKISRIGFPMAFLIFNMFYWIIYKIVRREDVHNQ
In words: whole-cell patch clamp, U-tube application, Hill fit of peak currents. It is filed as cell-based. The text has this: (§1) whole-cell patch clamp, U-tube application, Hill fit of peak currents on homomeric α1 GlyR
(Patch clamp records ionic current or voltage across a cell membrane.)

For assay [2], the target named is T2, homomeric α1 GlyR (Homo sapiens, UniProt P23415).
T2 construct: gene GLRA1; full-length subunit, pcDNA3.1, transient expression in HEK293A; homopentamer; eGFP from separate plasmid
T2 sequence (P23415 29-457): T1 sequence (P23415 29-457 S298T) with T270S
The description is as above. It is filed as cell-based.
Text: as §1

The structures appear in SMILES notation. Substitutions are numbered along the chain they refer to.

Usually EC50 stands for the midpoint of the concentration-response curve. Read a low EC50 as an effect from little substance. In the case of `CNCC(=O)O` [sarcosine], the EC50 on homomeric α1 GlyR [1] is 23 ± 3 mM; at homomeric α1 GlyR [2], 14 ± 6 mM.
